Here are results for two compounds from BindingDB's records for doi:10.1016/s0960-894x(01)00229-3 (Peking University, 2001).

This test can be described thus: Inhibitory activity against secretory Phospholipase A2 (s-PLA2) of Naja naja.

The structures appear in SMILES notation. pIC50: −log10 of the molar value.

In the case of `COc1ccc2nc(Oc3ccccc3)cc(C(N)=O)c2c1` [6-Methoxy-2-phenoxy-quinoline-4-carboxylic acid amide], the pIC50 is 5.00.
For the compound `COc1ccc2nc(Oc3ccccc3)cc(CC(N)=O)c2c1` [2-(6-Methoxy-2-phenoxy-quinolin-4-yl)-acetamide], the pIC50 was 6.00.

A word on the pIC50: it is the IC50 on a negative log10 scale, so that one unit is a factor of ten. Higher therefore signals a low IC50.
